Columns and labels:
[1] = Cataleptogenic activity; conditions: rat, in vivo, ip; Wistar female rats; from total points of the maximum appearance of catatonia
Protocol: (2) Cataleptogenic Activity
The test was performed according to the method described by W. Wirth et al. in "Archives Internationales de Pharmacodynamie et de Therapie", vol, 115, 1 ff (1958).
Groups of 5 Wistar female rats each were used. […] The ED50 was determined from total points of the maximum appearance of catatonia.

[2] = tested on: apomorphine-induced vomiting; assay: Effect on apomorphine-induced vomiting; assay type: in vivo; conditions: Canis lupus familiaris, po, 2 hours prior to apomorphine hydrochloride (0.1 mg/kg, s.c.); incidence of vomiting checked for 2 hours; beagle dogs
Protocol: (1) Effect on apomorphine-induced vomiting
The test was performed according to the method described by M. Nakanishi et al: in "Arzneimittel-Forschung", vol. 21, 391 ff (1971).
Groups of 5-10 beagle dogs of both sexes each were used. The test compound was administered orally 2 hours prior to the treatment with apomorphine hydrochloride (0.1 mg/kg, s.c.). The incidence of vomiting was checked for 2 hours, and the ED50 (50% effective dose) was determined.

| SMILES | ED50 [1] | ED50 [2] |
| --- | --- | --- |
| Cl.Cl.O.O=C1NC2CCCCN2C12CCN(CCCN1c3ccccc3CCc3ccccc31)CC2 (centres unmarked) [A, 1'-[3-(10,11-dihydro-5H-dibenz[b,f]azepin-5-yl)propyl]-1,2,3,5,6,7,8,8a-octahydro-2-oxo-imidazo[1,2-a]pyridine-3-spiro-4'-piperidine dihydrochloride monohydrate] | > 50 mg/kg | 2.5 mg/kg |
| Cl.Cl.O.O=C1NC2CCCCN2C12CCN(CCCN1c3ccccc3CCc3ccc(Cl)cc31)CC2 (centres unmarked) [B, 1'-[3-(3-chloro-10,11-dihydro-5H-dibenz[b,f]azepin-5-yl)propyl]-1,2,3,5,6,7,8,8a-octahydro-2-oxo-imidazo[1,2-a]pyridine-3-spiro-4'-piperidine dihydrochloride monohydrate] | > 50 mg/kg | 0.5 mg/kg |
| Cl.Cl.O.O=C1N=C2CCCCN2C12CCN(CCCN1c3ccccc3CCc3ccccc31)CC2 [C, 1'-[3-(10,11-dihydro-5H-dibenz[b,f]azepin-5-yl)propyl]-2,3,5,6,7,8-hexahydro-2-oxo-imidazo[1,2-a]pyridine-3-spiro-4'-piperidine dihydrochloride monohydrate] | > 50 mg/kg | 2 mg/kg |
| CN(C)CCCN1c2ccccc2Sc2ccc(Cl)cc21 [Chlorpromazine, reference compound] | 12 mg/kg | 5.1 mg/kg |
